Laboratory results published in publication PMC6913647, “Novel sulphonamides incorporating triazene moieties show powerful carbonic anhydrase I and II inhibitory properties” (Journal of Enzyme Inhibition and Medicinal Chemistry, 2019).
Where two headings read alike, the source gives them in different places.

What was measured:
hCA I = biological target: T1, hCA I (Homo sapiens, UniProt P00915); assay: esterase inhibition assay; type: biochemical
T1 construct: gene CA1; native enzyme purified from human blood; cytosolic isoform
Description: esterase inhibition assay on hCA I

hCA II = biological target: T2, hCA II (Homo sapiens, UniProt P00918); assay: esterase inhibition assay; type: biochemical
T2 construct: gene CA2; native enzyme purified from human blood; cytosolic isoform
Description: esterase inhibition assay on hCA II

[1] = substrate 4-nitrophenyl acetate

T1 sequence (P00915 2-261): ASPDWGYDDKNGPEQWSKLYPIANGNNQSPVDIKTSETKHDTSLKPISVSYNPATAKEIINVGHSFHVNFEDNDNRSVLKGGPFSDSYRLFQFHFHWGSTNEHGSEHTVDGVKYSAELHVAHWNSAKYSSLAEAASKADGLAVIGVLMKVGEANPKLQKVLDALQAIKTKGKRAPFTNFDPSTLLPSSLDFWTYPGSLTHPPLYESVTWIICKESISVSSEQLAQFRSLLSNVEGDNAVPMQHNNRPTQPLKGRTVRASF

| Ki (hCA I) [nM] | Ki (hCA II) [nM] | Ki (hCA I; [1]) [nM] | Ki (hCA II; [1]) [nM] | SMILES |
| --- | --- | --- | --- | --- |
| 28 ± 6 | 18 ± 5 |  |  | NS(=O)(=O)c1cccc(N=NNc2ccccc2)c1 [compound 1, 3–(3-Pheynltriaz-1-en-1-yl)benzenesulfonamide] |
|  | 21 ± 9 | 21 ± 4 |  | NS(=O)(=O)c1cccc(N=NNc2ccc(F)cc2)c1 [compound 2, 3-(3-(4-Fluorophenyl)triaz-1-en-1-yl) benzenesulfonamide] |
| 57 ± 3 | 19 ± 4 |  |  | NS(=O)(=O)c1cccc(N=NNc2ccc(Br)cc2)c1 [compound 3, 3-(3-(4-Bromophenyl)triaz-1-en-1-yl) benzenesulfonamide] |
| 38 ± 4 |  |  | 16 ± 6 | CCOc1ccc(NN=Nc2cccc(S(N)(=O)=O)c2)cc1 [compound 4, 3-(3-(4-Ethoxyphenyl)triaz-1-en-1-yl) benzenesulfonamide] |
| 42 ± 8 | 21 ± 4 |  |  | COc1ccc(/N=N/Nc2cccc(S(N)(=O)=O)c2)cc1 [compound 5, 3-(3-(4-Methoxyphenyl)triaz-1-en-1-yl) benzenesulfonamide] |
| 49 ± 2 | 16 ± 2 |  |  | CCc1ccc(NN=Nc2cccc(S(N)(=O)=O)c2)cc1 [compound 6, 3-(3-(4-Ethylphenyl)triaz-1-en-1-yl) benzenesulfonamide] |
| 53 ± 15 | 22 ± 6 |  |  | NS(=O)(=O)c1cccc(N=NNc2cccc(Cl)c2)c1 [compound 7, 3-(3-(3-Chlorophenyl)triaz-1-en-1-yl) benzenesulfonamide] |
| 36 ± 3 | 28 ± 6 |  |  | NS(=O)(=O)c1cccc(N=NNc2cccc(F)c2)c1 [compound 8, 3-(3-(3-Fluorophenyl)triaz-1-en-1-yl) benzenesulfonamide] |
| 33 ± 5 | 23 ± 2 |  |  | COc1cccc(NN=Nc2cccc(S(N)(=O)=O)c2)c1 [compound 9, 3-(3-(3-Methoxyphenyl)triaz-1-en-1-yl) benzenesulfonamide] |
| 46 ± 12 | 20 ± 5 |  |  | NS(=O)(=O)c1cccc(N=NNc2ccccc2Cl)c1 [compound 10, 3-(3-(2-Chlorophenyl)triaz-1-en-1-yl) benzenesulfonamide] |
| 72 ± 2 | 33 ± 9 |  |  | NS(=O)(=O)c1cccc(N=NNc2ccccc2F)c1 [compound 11, 3-(3-(2-Fluorophenyl)triaz-1-en-1-yl) benzenesulfonamide] |
| 61 ± 1 | 40 ± 2 |  |  | NS(=O)(=O)c1cccc(N=NNc2ccccc2Br)c1 [compound 12, 3-(3-(2-Bromophenyl)triaz-1-en-1-yl) benzenesulfonamide] |
